Results published in patent US20230135093A1, “TRIAZOLYL DERIVATIVES AS GABA A ALPHA5 PAM” (Hoffmann-La Roche Inc., priority 2020, published 2023).
pKi: −log10 of the molar value.

Columns and labels:
[1] = molecular target: T1, h-GABA-A α5β3γ2 (Homo sapiens, UniProt P18507+P31644); assay: [3H]flumazenil competition binding assay on membranes of HEK293 cells expressing GABAA receptors; conditions: Table 1; displacement of [3H]-Flumazenil (0.5 nM), HEK293 cells expressing human receptors, means of two determinations
T1 construct: expressed in transfected cells; host or cells: Xenopus laevis oocytes, micro-injected with subunit RNA
Procedure: The affinity of compounds at GABAA receptor subtypes was measured by competition for [3H]flumazenil (85 Ci/mmol; Roche) binding to HEK293 cells expressing rat (stably transfected) or human (transiently transfected) receptors of composition α1β3γ2, α2β3γ2, α3β3γ2 and α5β3γ2.
Cell pellets were suspended in Krebs-tris buffer (4.8 mM KCl, 1.2 mM CaCl2, 1.2 mM MgCl2, 120 mM NaCl, 15 mM Tris; pH 7.5; binding assay buffer), homogenized by polytron for ca. 20 sec on ice and centrifuged for 60 min at 4° C. (50000 g; Sorvall, rotor: SM24=20000 rpm). The cell pellets were resuspended in Krebs-tris buffer and homogenized by polytron for ca. 15 sec on ice. Protein was measured (Bradford method, Bio-Rad) and aliquots of 1 mL were prepared and stored at −80° C.
Radioligand binding assays were carried out in a volume of […] (96-well plates) which contained […] of cell membranes, [^3H]-Flumazenil at a concentration of 1 nM for α1, α2, α3 subunits and 0.5 nM for α5 subunits and the test compound in the range of […]. Nonspecific binding was defined by 10^−5 M diazepam and typically represented less than 5% of the total binding. Assays were incubated to equilibrium for 1 hour at 4° C. and harvested onto GF/C uni-filters (Packard) by filtration using a Packard harvester and washing with ice-cold wash buffer (50 mM Tris; pH 7.5). After drying, filter-retained radioactivity was detected by liquid scintillation counting. Ki values were calculated using Excel-Fit (Microsoft) and are the means of two determinations.
In a preferred embodiment the compounds of the invention are binding selective for the α5 subunit relative to the α1, α2 and α3 subunit. Representative test results, obtained by the above described assay measuring binding affinity to HEK293 cells expressing human (h) receptors, are shown in the Table below.

[2] = molecular target: T1, h-GABA-A α5β3γ2; assay: Two-electrode voltage clamp electrophysiology in Xenopus oocytes expressing GABAA receptors (modulation of GABA EC20 current); assay type: cell-based; conditions: for Efficacy (GABA) % / Fold increase h-GABA-A α5β3γ2 oocyte: Table 1; for Efficacy (GABA) %: % modulation of GABA EC20 = 100*(Fold increase-1); for Fold increase h-GABA-A α5β3γ2 oocyte: Xenopus oocytes, GABA EC20, test compound at approximatively 30 fold its Ki; for Fold increase: positive controls
Procedure: Xenopus laevis oocytes at maturation stages V-VI were used for the expression of cloned mRNA encoding GABAA receptor subunits. Oocytes ready for RNA micro-injection were bought from Ecocyte, Castrop-Rauxel, Germany and stored in modified Barth's medium (composition in mM: NaCl 88, KCl 1, NaHCO3 2.4, HEPES 10, MgSO4 0.82, CaNO3 0.33, CaCl2 0.33, pH=7.5) at 20° C. until the experiment.
Oocytes were plated in 96-well plates to be used in an automated instrument (Robo-ocyte, MultiChannelSystems, Reutlingen, Germany) for microinjection and electrophysiological recordings. Approximately 50 nl of an aqueous solution containing the RNA transcripts for the subunits of the desired GABAA receptor was injected into each oocyte. RNA concentrations ranged between 0.3 and 16 ng/μl/subunit and were adjusted in pilot experiments to obtain GABA responses of a suitable size and a maximal effect of the reference modulator, Beta-CCM (3-CCM), a betacarboline negative allosteric modulator (NAM) at the GABAA receptor benzodiazepine (BZD) binding site or Midazolam, a benzodiazepine positive allosteric modulator (PAM) at the GABAA receptor benzodiazepine (BZD) binding site. The concentration of the γ2 subunit encoding RNA usually was 5- to 10-fold higher than the RNAs encoding the other subunits. Oocytes were kept in modified Barth's medium (composition in mM: NaCl 88, KCl 1, NaHCO3 4, HEPES 10, MgSO4 0.82, CaNO3 0.33, CaCl2 0.33, pH=7.5) at 20° C. until the experiment.
Electrophysiological experiments were performed on days 3 to 5 after the micro-injection of mRNA. During the experiment the oocytes were constantly superfused by a solution containing (in mM) NaCl 90, KCl 1, HEPES 5, MgCl2 1, CaCl2 1 (pH 7.4). Oocytes were impaled by two glass microelectrodes (resistance: 0.4 MQ) which were filled with a solution containing KCl 1M+K-acetate 1.5 M and voltage-clamped to −80 mV. The recordings were performed at room temperature using the Roboocyte two-electrode voltage clamp system (Multichannelsystem). After an initial equilibration period of 1.5 min GABA was added for 1.5 min at a concentration evoking approximately 20% of a maximal current response (EC20). After another rest interval of 2.5 min GABA was again added evoking a response of similar amplitude and shape. 0.5 min after the onset of this second GABA application the test compound, at a concentration corresponding to approximatively 30 fold its Ki, was added while GABA was still present. Current traces were recorded at a digitization rate of 10 Hz during and shortly before and after the GABA application.
Each compound and concentration was tested on at least 3 oocytes. Different oocytes were used for different compound concentrations. β-CCM, a negative allosteric modulator, or Midazolam, a positive allosteric modulators, were tested on a few (3-6) oocytes on each 96-well plate for a positive control at a maximally effective. β-CCM inhibited the GABA-evoked current by approximatively 50% (Fold increase 0.5), while Midazolam potentiated the GABA-induced current by approximatively 150% (Fold increase 2.5).
For the analysis, the digitized current traces of the first and second GABA response were superimposed and, if necessary, rescaled to equal maximal amplitudes. The ratio between the two responses during the time interval of test compound application was calculated point by point. The extremum of the resulting “ratio trace” was taken as the efficacy (“Fold increase”) of the compound expressed as “% modulation of GABA EC20” (100*(Fold increase-1)).

[3] = positive control, maximally effective concentration, 3-6 oocytes per 96-well plate
[4] = maximally effective concentration

Compound | pKi [1] | Efficacy (GABA) % [2] [%] | Fold increase h-GABA-A α5β3γ2 oocyte [2] | potentiated the GABA-induced current [2, 3] [%] | Fold increase [2, 4] | inhibited the GABA-evoked current [2, 3] [%]
Cc1ccc(-c2nnn(C)c2Cn2ncc(N3C[C@H](C)O[C@@H](C)C3)cc2=O)cn1 (racemic) [Example 12, 2-[[3-methyl-5-(6-methyl-3-pyridyl)triazol-4-yl]methyl]-5-[rac-(2S,6S)-2,6-dimethylmorpholin-4-yl]pyridazin-3-one] | 8.59 | 191 | 2.91 |  |  | 
Cc1nnn(-c2ccc(Cl)cc2F)c1Cn1ncc(N2C[C@H](C)O[C@@H](C)C2)cc1=O (racemic) [Example 37, 2-[[3-(4-chloro-2-fluoro-phenyl)-5-methyl-triazol-4-yl]methyl]-5-[rac-(2S,6S)-2,6-dimethylmorpholin-4-yl]pyridazin-3-one] | 8.44 | 135 | 2.35 |  |  | 
Cc1ccc(-n2nnc(C)c2Cn2ncc(N3C[C@@H](C)O[C@@H](C)C3)cc2=O)cn1 [Example 1, 5-(cis-2,6-dimethylmorpholin-4-yl)-2-((5-methyl-3-(6-methylpyridin-3-yl)triazol-4-yl)methyl)pyridazin-3-one] | 7.46 | 190 | 2.9 |  |  | 
Cc1ccc(-c2nnn(C)c2Cn2ncc(N3C[C@@H](C)O[C@@H](C)C3)cc2=O)cn1 [Example 2, 5-(cis-2,6-dimethylmorpholin-4-yl)-2-((3-methyl-5-(6-methylpyridin-3-yl)triazol-4-yl)methyl)pyridazin-3-one] | 8.33 | 230 |  |  |  | 
C[C@@H]1CN(c2cnn(Cc3c(-c4ccc(Cl)cc4F)nnn3C)c(=O)c2)C[C@H](C)O1 [Example 3, 2-((5-(4-chloro-2-fluoro-phenyl)-3-methyl-triazol-4-yl)methyl)-5-(cis-2,6-dimethylmorpholin-4-yl)pyridazin-3-one] | 8.92 | 124 | 2.24 |  |  | 
Cc1nnn(-c2ccc(Cl)cc2F)c1Cn1ncc(N2CCOCC2)cc1=O [Example 4, 2-((3-(4-chloro-2-fluoro-phenyl)-5-methyl-triazol-4-yl)methyl)-5-morpholino-pyridazin-3-one] | 7.81 | 97 | 1.97 |  |  | 
Cc1nnn(-c2ccc(Cl)cc2F)c1Cn1ncc(N(C)C)cc1=O [Example 5, 2-((3-(4-chloro-2-fluoro-phenyl)-5-methyl-triazol-4-yl)methyl)-5-(dimethylamino)pyridazin-3-one] | 7.74 | 58 | 1.58 |  |  | 
Cc1nnn(-c2ccc(Cl)cc2F)c1Cn1ncc(N2CCN(C(=O)C3CC3)CC2)cc1=O [Example 6, 2-((3-(4-chloro-2-fluoro-phenyl)-5-methyl-triazol-4-yl)methyl)-5-(4-(cyclopropane-carbonyl)piperazin-1-yl)pyridazin-3-one] | 7.14 | 121 | 2.21 |  |  | 
Cc1nnn(-c2ccc(Cl)cc2F)c1Cn1ncc(N2C[C@@H](C)O[C@@H](C)C2)cc1=O [Example 7, 2-((3-(4-chloro-2-fluoro-phenyl)-5-methyl-triazol-4-yl)methyl)-5-((2S,6R)-2,6-dimethylmorpholin-4-yl)pyridazin-3-one] | 8.24 | 164 | 2.64 |  |  | 
Cc1ccc(-c2nnn(C)c2Cn2ncc(N3CCCC3)cc2=O)cn1 [Example 8, 2-((3-methyl-5-(6-methyl-3-pyridyl)triazol-4-yl)methyl)-5-pyrrolidin-1-yl-pyridazin-3-one] | 7.68 | 130 | 2.3 |  |  | 
Cc1ccc(-c2nnn(C)c2Cn2ncc(N3CCOCC3)cc2=O)cn1 [Example 9, 2-[[3-methyl-5-(6-methyl-3-pyridyl)triazol-4-yl]methyl]-5-morpholino-pyridazin-3-one] | 7.77 | 135 | 2.35 |  |  | 
Cc1ccc(-c2nnn(C)c2Cn2ncc(N3CCC(C)(C)C3)cc2=O)cn1 [Example 10, 5-(3,3-dimethylpyrrolidin-1-yl)-2-[[3-methyl-5-(6-methyl-3-pyridyl)triazol-4-yl]methyl]pyridazin-3-one] | 8.36 | 201 | 3.01 |  |  | 
Cc1ccc(-c2nnn(C)c2Cn2ncc(N3CCOC(C)(C)C3)cc2=O)cn1 [Example 11, 5-(2,2-dimethylmorpholin-4-yl)-2-[[3-methyl-5-(6-methyl-3-pyridyl)triazol-4-yl]methyl]pyridazin-3-one] | 8.92 | 48 | 1.48 |  |  | 
Cc1nnn(-c2ccc(Cl)cc2)c1Cn1ncc(N(C)C)cc1=O [Example 13, 2-[[3-(4-chlorophenyl)-5-methyl-triazol-4-yl]methyl]-5-(dimethylamino)pyridazin-3-one] | 7.50 | 31 | 1.31 |  |  | 
Cc1nnn(-c2ccc(Cl)cc2)c1Cn1ncc(N2CCNCC2)cc1=O [Example 14, 2-[[3-(4-chlorophenyl)-5-methyl-triazol-4-yl]methyl]-5-piperazin-1-yl-pyridazin-3-one] | 7.40 | 72 | 1.72 |  |  | 
CN(C)c1cnn(Cc2c(-c3ccc(Cl)cc3F)nnn2C)c(=O)c1 [Example 15, 2-[[5-(4-chloro-2-fluoro-phenyl)-3-methyl-triazol-4-yl]methyl]-5-(dimethylamino)pyridazin-3-one] | 8.42 | 48 | 1.48 |  |  | 
Cn1nnc(-c2ccc(Cl)cc2F)c1Cn1ncc(N2CCOCC2)cc1=O [Example 16, 2-[[5-(4-chloro-2-fluoro-phenyl)-3-methyl-triazol-4-yl]methyl]-5-morpholino-pyridazin-3-one] | 8.66 | 81 | 1.81 |  |  | 
Cc1ncc2n1-c1ccc(Cl)cc1C(c1ccccc1F)=NC2 [Midazolam, reference compound] |  |  |  | ~150 | ~2.5 | 
COC(=O)c1cc2c(cn1)[nH]c1ccccc12 [β-CCM, reference compound] |  |  |  |  | ~0.5 | ~50
